The values that follow come from PubChem BioAssay (NCI).

Test in all cases: inhibition of tumour cell growth, NCI panel, 48 h
The test system of assay [1] is COLO 205 colon.
Assay [2] deals with EKVX NSCLC.
Assay [3] has as its system HCT-116 colon.
In assay [4] the test system is MOLT-4 leukemia.
In assay [5] the test system is OVCAR-5 ovarian.
The test system of assay [6] is RPMI-8226 leukemia.
The test system of assay [7] is SK-OV-3 ovarian.
Assay [8] has as its system SNB-75 CNS.
Assay [9] has as its system SW-620 colon.
The subject of assay [10] is HOP-62 NSCLC.

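How tested: cells in 96-well plates exposed to compound for 48 hours at five concentrations. Abbreviation: GI50, concentration required for 50% inhibition of growth. The concentration for full growth arrest is given as TGI.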

Consider `O=C1C(OC(=O)c2ccccc2)=C(c2ccc(O)cc2)C(=O)C(OC(=O)c2ccccc2)=C1c1ccc(O)cc1`, for which the TGI in assay [1], in [2], in assay [3], in [4], in assay [5] and in [6] was over 100 µM each time. The TGI in assay [7], in assay [8] and in [9] was over 100 µM each time.
As to `COc1ccc(F)cc1-c1ccnc2[nH]c(C3=CCN(C4CCC(CC(=O)O)CC4)CC3)cc12` (configuration not stated), the GI50 in assay [1] is 0.0747 µM; in [2] it was 0.289 µM; in [3], 0.163 µM; in [10], 0.362 µM; in assay [4], 0.218 µM; in [5], 0.268 µM. In addition, the GI50 in [6] is 0.235 µM; in [7] it was 1.2 µM; in assay [8], 0.13 µM; in assay [9], 0.123 µM. In addition, the TGI in assay [1] was 0.561 µM; in assay [2], 40.9 µM; in [3], over 100 µM; in assay [10], over 100 µM; in assay [4] it was over 100 µM; in assay [5] it was over 100 µM. Further, the TGI in assay [6] is 0.786 µM; in assay [7], over 100 µM; in assay [8] it was 0.381 µM; in assay [9], 18.3 µM.
Regarding `CCOc1ccccc1NC(=O)C1=C(C)NC(C)=C(C(=O)Nc2ccccc2OCC)C1c1cccc([N+](=O)[O-])c1`, the TGI in [1], in assay [2], in [10], in assay [4], in assay [5] and in assay [6] was over 100 µM in each case. Besides, the TGI in assay [7] was over 100 µM; in [8] it was 89.3 µM; in assay [9] it was over 100 µM.
Consider `N=C1C=C(N)C(=O)c2ccccc21`, for which the GI50 in assay [1] is 0.267 µM; in assay [2], 0.202 µM; in [3], 0.183 µM; in assay [10], 0.204 µM; in [4], 0.215 µM; in [5], 0.184 µM. Besides, the GI50 is 0.241 µM in assay [6], 1.51 µM in assay [7], 0.151 µM in [8] and 0.22 µM in [9]. Further, the TGI came out at 0.664 µM in assay [1]; 0.421 µM in [2]; 0.451 µM in [3]; 0.435 µM in assay [10]; 0.558 µM in assay [4]; 0.373 µM in [5]. The TGI in [6] was found to be 0.669 µM; in assay [7], 2.86 µM; in assay [8], 0.293 µM; in [9], 0.509 µM.
With `CCOC(=O)N(O)c1ccc(/C=C/c2ccccc2)cc1`, the GI50 in [1] is 13.2 µM; in assay [2], 9.05 µM; in assay [3], 0.407 µM; in assay [10], 7.45 µM; in [4] it was 11 µM; in [5] it was 0.737 µM. The GI50 in [6] is 5.08 µM; in assay [7], 23.6 µM; in assay [8] it was 29.3 µM; in assay [9], 5.3 µM. Also, the TGI in assay [1] was 38.5 µM; in assay [2] it was 63.6 µM; in assay [3], 10.5 µM; in assay [10] it was over 59 µM; in assay [4], 51.3 µM; in assay [5], 9.71 µM. The TGI in assay [6] was 38.8 µM; in [7], over 100 µM; in assay [8], over 100 µM; in [9], 25.1 µM.
`C=C1C(=O)OC2(C)CCC1CC1OC1(C)CCC=C(C)CCC2O` (configuration not stated): the TGI in assay [1], in assay [2], in assay [3], in [4], in assay [5] and in [6] was over 100 µM each time. The TGI in assay [7], in assay [8] and in assay [9] was over 100 µM each time.
For the compound `CCOC(=O)C(=O)Nc1nc2ccc(C)cc2s1`, the TGI in [1], in assay [2], in assay [3], in [10], in assay [4] and in assay [5] was over 100 µM in each case. In addition, the TGI in assay [6], in assay [7], in assay [8] and in assay [9] was over 100 µM each time.
For the compound `COC1CC(n2cc(F)c(N)nc2=O)OC1CO` (configuration not stated), the TGI in assay [1], in assay [2], in assay [10], in assay [4], in assay [5] and in assay [6] was over 100 µM throughout. Also, the TGI in [7], in assay [8] and in assay [9] was over 100 µM throughout.
For `Oc1ccc(O)c(-n2cccn2)c1-n1cccn1`, the TGI in assay [1] was 90.1 µM; in [2] it was over 100 µM; in [10], over 100 µM; in [4], over 10 µM; in assay [5] it was over 100 µM; in [6], over 100 µM. Moreover, the TGI in assay [7], in [8] and in assay [9] was over 100 µM in each case.
Consider `CC1OC(=O)N2CCC=CC12` (configuration not stated), for which the TGI in assay [1], in assay [2], in [3], in [4], in [5] and in assay [6] was over 100 µM each time. Moreover, the TGI in assay [7], in [8] and in [9] was over 100 µM each time.
As for `CCOC(=O)CC(C)C1(C=O)CCCCC1=O` (configuration not stated), the TGI in assay [1], in [2], in [3], in [10], in [4] and in assay [5] was over 100 µM throughout. Moreover, the TGI was 53.2 µM in [6], over 100 µM in [7] and over 100 µM in assay [8].
Turning to `C[C@H]1CCC2C(OC(=O)[C@@H]2CN(C)C)[C@]2(C)C(=O)C=CC12O` (some centres not stated), the TGI in assay [1] was 17.9 µM; in assay [3], 12.5 µM; in assay [10] it was 45.6 µM; in assay [4], 20.2 µM; in assay [5] it was 34.1 µM; in assay [6], 16.2 µM. Besides, the figures for the TGI in assay [7], in assay [8] and in [9] were 38.6 µM, 27.1 µM and 10.2 µM, respectively.
